Laboratory results published in patent publication US20230390397A1, “SYSTEM, METHOD AND PROCESS FOR SELF-STERILIZATION OF IODINE-[…]” (HDR LLC, priority 2022, published 2023).
Converted amounts (≈) assume the structure as drawn. “And” between values parts separate entries of the source, which are not always exact repeats. Equal values may be shown once. Read-outs that look alike come from different tables or passages of the source.

Columns and labels:
[1] = cited from earlier work
[2] = Evaporation of I2 from I2 and I- mixed solutions in an open and well-ventilated space; assay type: physicochemical; details: initial I2 concentration 0.99 mm, open system
From the text: The effects of temperature, concentration of I2, and presence of I— on the evaporation of I2 in I2 and I— mixed solutions were investigated in an open and well-ventilated space. From the experiments, it was confirmed that the evaporation rate of I2 increased exponentially as the solution temperature increased, showing a similar trend with temperature dependence of the saturated vapor pressure of I2.
The phenomenon that I2 evaporation was expedited at higher temperature can be explained by temperature dependency of the evaporation enthalpy and saturated vapor pressure. For an open system, the vapor pressure of elemental iodine increases about 14 torr, or 0.27 psi.

In the case of `II` [Elemental iodine, Elemental iodine (I2)], the “free iodine which is soluble in water” value ([1]; 20° C.) is listed as 290 ppm, the solubility in water ([1]; 20° C.) is listed as 0.29 g/L (≈ 1.14 mM) and the solubility in water ([1]; 25° C.) is listed as 0.33 g/l and 1.2 mM. The solubility in water ([1]; 50° C.) was 0.78 g/L (≈ 3.07 mM), the “free iodine which is soluble in water” value ([1]; 70° C.) was 1,100 ppm and the “free iodine which is soluble in water” value ([1]; 80° C.) was 1,250 ppm. For the same molecule, the solubility in water ([1]; 80° C.) was 1.25 g/L (≈ 4.92 mM), the “lapsed time required to reduce less than 10% of the initial concentration” value ([2]; 50° C.) was ~30 min and the “lapsed time required to reduce less than 10% of the initial concentration” value ([2]; 80° C.) was ~7 min.
